Test results taken from US10336762B2 (priority 2017, dated 2019).
Read-outs that look alike come from different tables or passages of the source.

Experiments:
[1] = tested on: TNFα; experiment: cells; format: cell-based, human; conditions: LPS-stimulated human monocytes, read-out: EC50 TNF
[2] = target: IRAK4 enzyme (Homo sapiens (Human), UniProt Q9NWZ3); experiment: biochemical; format: biochemical; conditions: IRAK4 enzyme, 500 μM ATP
[3] = Homo sapiens, Monocyte, TNFα content
[4] = Homo sapiens, Monocyte, TNFα by TR-FRET

Sequence of IRAK4 enzyme (Q9NWZ3 whole entry): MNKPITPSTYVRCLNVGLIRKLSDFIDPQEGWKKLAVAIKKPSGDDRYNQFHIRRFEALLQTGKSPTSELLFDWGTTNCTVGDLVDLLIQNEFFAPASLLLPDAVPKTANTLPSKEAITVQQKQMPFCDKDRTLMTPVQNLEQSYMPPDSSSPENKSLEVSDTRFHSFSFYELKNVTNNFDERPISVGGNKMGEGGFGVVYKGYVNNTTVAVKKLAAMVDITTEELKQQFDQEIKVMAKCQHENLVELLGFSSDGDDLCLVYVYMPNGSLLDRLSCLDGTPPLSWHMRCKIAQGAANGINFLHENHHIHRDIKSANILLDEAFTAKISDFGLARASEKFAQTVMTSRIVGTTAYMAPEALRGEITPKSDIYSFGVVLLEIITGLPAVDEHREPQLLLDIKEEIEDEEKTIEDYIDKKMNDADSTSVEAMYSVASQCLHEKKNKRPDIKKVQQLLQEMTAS

Structure (SMILES) | EC50 [1, 3] [µM] | IC50 ([2]; TR-FRET (HTRF)) [µM] | EC50 ([1]; TNFα content) [µM] | IC50 ([2]; TR-FRET) [µM] | EC50 [1, 4] [µM]
N#Cc1cnn2c(-c3cc(N[C@H]4CCC[C@@H](O)C4)c(C(=O)NC4CC5(C4)CC(F)(F)C5)cn3)ccc2c1 [Example 427, 6-(3-cyanopyrrolo[1,2-b]pyridazin-7-yl)-N-(6,6-difluorospiro[3.3]heptan-2-yl)-4-(((1S,3R)-3-hydroxycyclohexyl)amino) nicotinamide] | 0.278 | 0.002 |  |  | 
CC(C)(O)[C@H](F)CNC(=O)c1cnc(-c2ccc3cc(C#N)cnn23)cc1NC12CCC(N3CCOC3=O)(CC1)CC2 [Example 399, 6-(3-cyanopyrrolo[1,2-b]pyridazin-7-yl)-N-((R)-2-fluoro-3-hydroxy-3-methylbutyl)-4-((4-(2-oxooxazolidin-3-yl)bicyclo[2.2.2]octan-1-yl)amino)nicotinamide] | 0.008 | < 0.001 |  |  | 
COC(=O)NCC1(F)CC(Nc2cc(-c3ccc4cc(C#N)cnn34)ncc2C(=O)NC[C@@H](F)C(C)(C)O)C1 (single isomer, unassigned) [Example 764] |  | < 0.001 | 0.008 |  | 
CC(C)(O)[C@H](F)CNC(=O)c1cnc(-c2ccc3cc(C#N)cnn23)cc1Nc1ccc(-n2cccn2)cc1 [Example 769, (R)-4-((4-(1H-pyrazol-1-yl)phenyl)amino)-6-(3-cyanopyrrolo[1,2-b]pyridazin-7-yl)-N-(2-fluoro-3-hydroxy-3-methylbutyl)nicotinamide] | 0.044 | < 0.001 |  |  | 
CC(=O)O[C@@H]1CCC[C@H](Nc2cc(-c3ccc4cc(C#N)cnn34)ncc2C(=O)NC[C@@H](F)C(C)(C)O)C1 [Example 501, (1R,3S)-3-((2-(3-cyanopyrrolo[1,2-b]pyridazin-7-yl)-5-(((R)-2-fluoro-3-hydroxy-3-methylbutyl)carbamoyl)pyridin-4-yl)amino)cyclohexyl acetate] | 0.063 | 0.002 |  |  | 
CC(C)(O)[C@H](F)CNC(=O)c1cnc(-c2ccc3cc(C#N)cnn23)cc1NC1CCC(C)(N2CCOCC2)CC1 (single isomer, unassigned) [Example 691] |  | 0.005 | 0.345 |  | 
CC(=O)N[C@H]1CC[C@@H](Nc2cc(-c3ccc4cc(C#N)cnn34)ncc2C(=O)NC[C@@H](F)C(C)(C)O)C1 [Example 307, 4-(((1R,3S)-3-acetamidocyclopentyl)amino)-6-(3-cyano-pyrrolo[1,2-b]pyridazin-7-yl)-N-((R)-2-fluoro-3-hydroxy-3-methylbutyl) nicotinamide] | 0.32 |  |  | 0.002 | 
CC(C)(O)[C@H](F)CNC(=O)c1cnc(-c2ccc3cc(C#N)cnn23)cc1Nc1nc(Cc2ccccc2)ns1 [Example 335, (R)-4-((3-benzyl-1,2,4-thiadiazol-5-yl)amino)-6-(3-cyanopyrrolo[1,2-b]pyridazin-7-yl)-N-(2-fluoro-3-hydroxy-3-methylbutyl)nicotinamide] | 0.1 |  |  | 0.003 | 
COC(=O)N1CC[C@@H]1CNc1cc(-c2ccc3cc(C#N)cnn23)ncc1C(=O)NC[C@@H](F)C(C)(C)O [Example 893, (R)-methyl 2-(((2-(3-cyano-pyrrolo[1,2-b]pyridazin-7-yl)-5-(((R)-2-fluoro-3-hydroxy-3-methylbutyl)carbamoyl)pyridin-4-yl)amino)methyl)azetidine-1-carboxylate] |  |  |  | 0.002 | 0.217
CNC(=O)c1cnc(-c2ccc3cc(C#N)cnn23)cc1NC12CC(NC(=O)C3CC3)(C1)C2 [Example 480, 6-(3-cyanopyrrolo[1,2-b]pyridazin-7-yl)-4-((3-(cyclopropanecarboxamido)bicyclo[1.1.1]pentan-1-yl)amino)-N-methylnicotin-amide] | 0.092 | 0.002 |  |  | 
CC(C)Nc1cc(-c2ccc3cc(C#N)cnn23)ncc1C(=O)NCC(=O)OC(C)(C)C [Example 812, tert-butyl (6-(3-cyano-pyrrolo[1,2-b]pyridazin-7-yl)-4-(isopropylamino)nicotinoyl)glycinate] |  |  |  | < 0.001 | 0.038
CN(C)C(=O)NC12CCC(Nc3cc(-c4ccc5cc(C#N)cnn45)ncc3C(=O)NC[C@@H](F)C(C)(C)O)(CC1)CC2 [Example 272, (R)-6-(3-cyanopyrrolo[1,2-b]pyridazin-7-yl)-4-((4-(3,3-dimethylureido)bicyclo[2.2.2]octan-1-yl)amino)-N-(2-fluoro-3-hydroxy-3-methylbutyl)nicotinamide] | 0.023 |  |  | 0.001 | 
CC(C)(O)[C@H](F)CNC(=O)c1cnc(-c2ccc3cc(C#N)cnn23)cc1Nc1ccccc1C#N [Example 143, (R)-4-((2-cyanophenyl)amino)-6-(3-cyanopyrrolo[1,2-b]pyridazin-7-yl)-N-(2-fluoro-3-hydroxy-3-methylbutyl)nicotinamide] | 0.72 |  |  | 0.018 | 
CC(=O)NC[C@H]1CN(c2ccc(Nc3cc(-c4ccc5cc(C#N)cnn45)ncc3C(=O)NC[C@@H](F)C(C)(C)O)cn2)CCO1 [Example 886, 4-((6-((S)-2-(acetamido-methyl)morpholino)pyridin-3-yl)amino)-6-(3-cyano-pyrrolo[1,2-b]pyridazin-7-yl)-N-((R)-2-fluoro-3-hydroxy-3-methylbutyl) nicotinamide] |  |  |  | 0.002 | 0.029
COC(=O)N1Cc2ccc(Nc3cc(-c4ccc5cc(C#N)cnn45)ncc3C(=O)NC[C@@H](F)C(C)(C)O)cc2C1 [Example 196, (R)-methyl 5-((2-(3-cyanopyrrolo[1,2-b]pyridazin-7-yl)-5-((2-fluoro-3-hydroxy-3-methylbutyl)carbamoyl)pyridin-4-yl)amino)isoindoline-2-carboxylate] | 0.053 |  |  | 0.002 | 
CNC(=O)O[C@H]1C[C@@H](Nc2cc(-c3ccc4cc(C#N)cnn34)ncc2C(=O)NC[C@@H](F)C(C)(C)O)C1 [Example 351, (1S,3S)-3-((2-(3-cyanopyrrolo[1,2-b]pyridazin-7-yl)-5-(((R)-2-fluoro-3-hydroxy-3-methylbutyl)carbamoyl)pyridin-4-yl)amino)cyclobutyl methylcarbamate] | 0.12 |  |  | 0.002 | 
CC(C)(O)[C@H](F)CNC(=O)c1cnc(-c2ccc3cc(C#N)cnn23)cc1N[C@H]1CC[C@H](n2cncn2)CC1 [Example 779, 4-(((1r,4R)-4-(1H-1,2,4-triazol-1-yl)cyclohexyl)amino)-6-(3-cyano-pyrrolo[1,2-b]pyridazin-7-yl)-N-((R)-2-fluoro-3-hydroxy-3-methylbutyl) nicotinamide] | 0.028 | < 0.001 |  |  | 
Cc1ncc(-c2ccc(Nc3cc(-c4ccc5cc(C#N)cnn45)ncc3C(=O)NC[C@@H](F)C(C)(C)O)cc2)o1 [Example 207, (R)-6-(3-cyanopyrrolo[1,2-b]pyridazin-7-yl)-N-(2-fluoro-3-hydroxy-3-methylbutyl)-4-((4-(2-methyloxazol-5-yl)phenyl)amino) nicotinamide] | 0.096 |  |  | 0.001 | 
CC(C)(O)[C@H](F)CNC(=O)c1cnc(-c2ccc3cc(C#N)cnn23)cc1Nc1ccc(C(C)(C)N2CCCC2=O)cc1 [Example 875, (R)-6-(3-cyanopyrrolo[1,2-b]pyridazin-7-yl)-N-(2-fluoro-3-hydroxy-3-methyl-butyl)-4-((4-(2-(2-oxo-pyrrolidin-1-yl)propan-2-yl)phenyl)amino)nicotinamide] |  |  |  | 0.002 | 0.064
